Assay results: patent US8293772B2, “Triazole substituted aminobenzophenone compounds” (Leo Pharma A/S, priority 2004, dated 2012)

What was measured:
TNF-α [1] = test: In vivo screening model of LPS induced TNF-α response in mice; conditions: Mus musculus, po, 1 mg/kg p.o., 1 hour prior to LPS, plasma TNF-α 80-90 minutes after LPS, read-out: In vivo inhibition of LPS induced TNF-α production (in %)
Experimental: In Vivo Screening Model of LPS Induced TNF-α Response in Mice
To study the effect of compounds of the present invention in vivo, an in vivo screening model of LPS induced TNF-α response in mice was set up as follows: Groups of 6 mice (C3H/HeN, female, about 8 weeks (20 g), Bomholtgaard) were dosed with test compounds in suspension vehicle 1 hour prior to LPS administration (LPS from E. coli 055:B5, L-4005, Sigma). At time 0, the mice were dosed ip with 1.0 mg LPS/kg. After anesthetization with Hypnorm/Dormicum, the mice were bled from the periorbital venous plexus 80-90 minutes after LPS administration. The blood samples were sampled in EDTA stabilised tubes and centrifuged at 4000 rpm for 10 minutes at 4° C. The plasma level of TNF-α was analysed by ELISA. Compound 156 of WO 98/32730 was used as reference compound. The plasma level of TNF-α was determined using a sandwich ELISA. Microtiter plates were coated with a monoclonal antibody against mouse TNF-α, washed and blocked with a casein buffer. Samples of mouse TNF-α recombinant standards were added to the wells of the microtiter plates and incubated. All standards were tested in triplicate, all plasma samples in single. After sample and standard incubation, the plates were washed and incubated with biotinylated polyclonal secondary antibody against mouse TNF-α and washed. Enzyme conjugate was added to all wells and incubated. Substrate was added and the enzyme/substrate reaction stopped after 15 minutes at room temperature with 1M H2SO4. The colour development (OD) was measured at 450 nm on an ELISA reader and the background OD at 620 nm was subtracted. […] The results of the tested compounds are indicated as a percentage inhibition compared to an LPS treated control group. Compounds were tested at 1 mg/kg (p.o.). The Mann-Whitney test was used to compare drug treated groups to the LPS treated control group (p<0.05).

TNF-α [2] = test: Inhibition of TNF-α secretion in LPS stimulated peripheral blood mononuclear cells; assay type: cell-based; conditions: LPS stimulated human PBMC, 18 hours, ELISA; read-out: The median inhibition concentration (IC50, nM) of TNF-α
Experimental: (§1) To study the effect of compounds of the present invention in vitro, the inhibition of IL-1β and TNF-α secretion was determined using the following procedure:
(§2) Cytokine production was measured in the media from lipopolysaccharide (LPS) stimulated peripheral blood mononuclear cells. The mononuclear cells were isolated from human peripheral blood by Lymphoprep® (Nycomed, Norway) fractionation and suspended in RPMI 1640 (growth medium) with foetal calf serum (FCS, 2%), at a concentration of 5×10^5 cells/ml. The cells were incubated in 24-well tissue culture plates in 1 ml aliquots. Test compounds were dissolved in dimethylsulfoxide (DMSO, 10 mM) and were diluted with the medium. Compounds were added to the cells for 30 minutes, then LPS ([…] final concentration) was added. The plates were incubated for 18 hours, and the concentration of IL-1β and TNF-α in the medium was determined by enzyme-linked immunosorbent assays. The median inhibitory concentrations (IC50) of the compounds were calculated.

IL-1β = test: Inhibition of IL-1β secretion in LPS stimulated peripheral blood mononuclear cells; assay type: cell-based; conditions: LPS stimulated human PBMC, 18 hours, ELISA; read-out: The median inhibition concentration (IC50, nM) of IL-1β
Experimental: as §1, §2

IC50 (TNF-α [2]) [nM]	IC50 (IL-1β) [nM]	SMILES	inhibition in vivo at 1 mg/kg (TNF-α [1]) [%]
2	3.2	Cc1ccc(-n2cc(CCN3CCOCC3)nn2)cc1C(=O)c1ccc(Nc2ccc(F)cc2F)cc1Cl [Compound 138, [2-Chloro-4-(2,4-difluoro-phenylamino)-phenyl]-{2-methyl-5-[4-(2-morpholin-4-yl-ethyl)-[1,2,3]triazol-1-yl]-phenyl}-methanone]	–
0.5	1.6	Cc1ccc(-n2cc(CCN3CCN(C)CC3)nn2)cc1C(=O)c1ccc(Nc2ccc(F)cc2F)cc1Cl [Compound 139, [2-Chloro-4-(2,4-difluoro-phenylamino)-phenyl]-(2-methyl-5-{4-[2-(4-methyl-piperazin-1-yl)-ethyl]-[1,2,3]triazol-1-yl}-phenyl)-methanone]	–
0.8	2	CCN(CC)CCc1cn(-c2ccc(C)c(C(=O)c3ccc(Nc4ccc(F)cc4F)cc3Cl)c2)nn1 [Compound 140, [2-Chloro-4-(2,4-difluoro-phenylamino)-phenyl]-{5-[4-(2-diethylamino-ethyl)-[1,2,3]triazol-1-yl]-2-methyl-phenyl}-methanone]	–
0.6	0.6	Cc1ccc(-n2cc(CCNCCO)nn2)cc1C(=O)c1ccc(Nc2ccc(F)cc2F)cc1Cl [Compound 141, [2-Chloro-4-(2,4-difluoro-phenylamino)-phenyl]-(5-{4-[2-(2-hydroxy-ethylamino)-ethyl]-[1,2,3]triazol-1-yl}-2-methyl-phenyl)-methanone]	–
0.8	1	CCCNCCc1cn(-c2ccc(C)c(C(=O)c3ccc(Nc4ccc(F)cc4F)cc3Cl)c2)nn1 [Compound 142, [2-Chloro-4-(2,4-difluoro-phenylamino)-phenyl]-{2-methyl-5-[4-(2-propylamino-ethyl)-[1,2,3]triazol-1-yl]-phenyl}-methanone]	–
1	4	Cc1cc(F)ccc1Nc1ccc(C(=O)c2cc(-n3cc(CCO)nn3)ccc2C)c(Cl)c1 [Compound 143, [2-Chloro-4-(4-fluoro-2-methyl-phenylamino)-phenyl]-{5-[4-(2-hydroxy-ethyl)-[1,2,3]triazol-1-yl]-2-methyl-phenyl}-methanone]	–
2	5	Cc1cc(Cl)ccc1Nc1ccc(C(=O)c2cc(-n3cc(CCO)nn3)ccc2C)c(Cl)c1 [Compound 145, [2-Chloro-4-(4-chloro-2-methyl-phenylamino)-phenyl]-{5-[4-(2-hydroxy-ethyl)-[1,2,3]triazol-1-yl]-2-methyl-phenyl}-methanone]	–

The next lines start with the compound.

SMILES	IC50 (TNF-α [2]) [nM]	IC50 (IL-1β) [nM]	inhibition in vivo at 1 mg/kg (TNF-α [1]) [%]
Cc1ccc(-c2cn(CCCO)nn2)cc1C(=O)c1ccc(Nc2ccc(F)cc2F)cc1Cl [Compound 104, [2-Chloro-4-(2,4-difluoro-phenylamino)-phenyl]-{5-[1-(3-hydroxy-propyl)-1H-[1,2,3]triazol-4-yl]-2-methyl-phenyl}-methanone]	0.5	0.6	90
Cc1ccc(-c2cn(CC3COC(C)(C)O3)nn2)cc1C(=O)c1ccc(Nc2ccc(F)cc2F)cc1Cl (centres unmarked) [Compound 105, [2-Chloro-4-(2,4-difluoro-phenylamino)-phenyl]-{5-[1-(2,2-dimethyl-[1,3]dioxolan-4-ylmethyl)-1H-[1,2,3]triazol-4-yl]-2-methyl-phenyl}-methanone]	1.4	–	–
Cc1ccc(-c2cn(CC(O)CO)nn2)cc1C(=O)c1ccc(Nc2ccc(F)cc2F)cc1Cl (centres unmarked) [Compound 106, [2-Chloro-4-(2,4-difluoro-phenylamino)-phenyl]-{5-[1-(2,3-dihydroxy-propyl)-1H-[1,2,3]triazol-4-yl]-2-methyl-phenyl}-methanone]	0.5	0.7	98
Cc1ccc(-c2cn(CC(N)=O)nn2)cc1C(=O)c1ccc(Nc2ccc(F)cc2F)cc1Cl [Compound 107, 2-(4-{3-[2-Chloro-4-(2,4-difluoro-phenylamino)-benzoyl]-4-methyl-phenyl}-[1,2,3]triazol-1-yl)-acetamide]	0.5	0.8	91
Cc1ccc(-c2cn(CCCS(N)(=O)=O)nn2)cc1C(=O)c1ccc(Nc2ccc(F)cc2F)cc1Cl [Compound 108, 3-(4-{3-[2-Chloro-4-(2,4-difluoro-phenylamino)-benzoyl]-4-methyl-phenyl}-[1,2,3]triazol-1-yl)-propane-1-sulfonic acid amide]	0.7	1.3	78
CCOC(=O)Cn1cc(-c2ccc(C)c(C(=O)c3ccc(Nc4ccc(F)cc4F)cc3Cl)c2)nn1 [Compound 110, (4-{3-[2-Chloro-4-(2,4-difluoro-phenylamino)-benzoyl]-4-methyl-phenyl}-[1,2,3]triazol-1-yl)-acetic acid ethyl ester]	3.6	6.3	–
Cc1ccc(-c2cn(CC(=O)NC(C)(C)CO)nn2)cc1C(=O)c1ccc(Nc2ccc(F)cc2F)cc1Cl [Compound 113, 2-(4-{3-[2-Chloro-4-(2,4-difluoro-phenylamino)-benzoyl]-4-methyl-phenyl}-[1,2,3]triazol-1-yl)-N-(2-hydroxy-1,1-dimethyl-ethyl)-acetamide]	0.6	6.3	–
Cc1ccccc1Nc1ccc(C(=O)c2cc(-n3cc(CCO)nn3)ccc2C)c(Cl)c1 [Compound 117, (2-Chloro-4-o-tolylamino-phenyl)-{5-[4-(2-hydroxy-ethyl)-[1,2,3]triazol-1-yl]-2-methyl-phenyl}-methanone]	1.1	1.6	–
Cc1ccc(-n2cc(CCO)nn2)cc1C(=O)c1ccc(Nc2ccc(F)cc2Cl)cc1Cl [Compound 118, [2-Chloro-4-(2-chloro-4-fluoro-phenylamino)-phenyl]-{5-[4-(2-hydroxy-ethyl)-[1,2,3]triazol-1-yl]-2-methyl-phenyl}-methanone]	0.9	1.3	–
COc1ccc(-c2cn(CCO)nn2)cc1C(=O)c1ccc(Nc2ccc(F)cc2F)cc1Cl [Compound 120, [2-Chloro-4-(2,4-difluoro-phenylamino)-phenyl]-{5-[1-(2-hydroxy-ethyl)-1H-[1,2,3]triazol-4-yl]-2-methoxy-phenyl}-methanone]	0.8	5	–
Cc1ccc(-n2cc(CCO)nn2)cc1C(=O)c1ccc(Nc2ccc(F)cc2F)cc1Cl [Compound 128, [2-Chloro-4-(2,4-difluoro-phenylamino)-phenyl]-{5-[4-(2-hydroxy-ethyl)-[1,2,3]triazol-1-yl]-2-methyl-phenyl}-methanone]	1	–	95
Cc1ccc(-n2cc(C(C)(C)O)nn2)cc1C(=O)c1ccc(Nc2ccc(F)cc2F)cc1Cl [Compound 129, [2-Chloro-4-(2,4-difluoro-phenylamino)-phenyl]-{5-[4-(1-hydroxy-1-methyl-ethyl)-[1,2,3]triazol-1-yl]-2-methyl-phenyl}-methanone]	1.4	–	83
CC(=O)c1cn(-c2ccc(C)c(C(=O)c3ccc(Nc4ccc(F)cc4F)cc3Cl)c2)nn1 [Compound 130, 1-(1-{3-[2-Chloro-4-(2,4-difluoro-phenylamino)-benzoyl]-4-methyl-phenyl}-1H-[1,2,3]triazol-4-yl)-ethanone]	0.6	1.3	–
Cc1ccc(-n2cc(CCN)nn2)cc1C(=O)c1ccc(Nc2ccc(F)cc2F)cc1Cl [Compound 136, {5-[4-(2-Amino-ethyl)-[1,2,3]triazol-1-yl]-2-methyl-phenyl}-[2-chloro-4-(2,4-difluoro-phenylamino)-phenyl]-methanone]	1.3	1.6	–
Cc1ccc(-n2cc(CNC(N)=O)nn2)cc1C(=O)c1ccc(Nc2ccc(F)cc2F)cc1Cl [Compound 137, (1-{3-[2-Chloro-4-(2,4-difluoro-phenylamino)-benzoyl]-4-methyl-phenyl}-1H-[1,2,3]triazol-4-ylmethyl)-urea]	0.3	1	–
